The numbers were not newly measured in publication PMC4460250, “Systems Pharmacology Dissecting Holistic Medicine for Treatment of Complex Diseases: An Example Using Cardiocerebrovascular Diseases Treated by TCM” (Evidence-based Complementary and Alternative Medicine : eCAM, 2015), which cites them from elsewhere.

For the data set the following is noted: in vivo; cited from earlier work.

For the compound `CCOC(=O)Nc1ccc2c(c1)N(C(=O)CCN1CCOCC1)c1ccccc1S2` [Moricizine], the “HIA(Human Intestinal Absorption)” value is listed as 0.88.

As for `CC(=O)Nc1ccc(O)cc1` [Acetaminophen], the “HIA(Human Intestinal Absorption)” value is recorded as 0.85. Consider `CCc1nn(CCCN2CCN(c3cccc(Cl)c3)CC2)c(=O)n1CCOc1ccccc1` [Nefazodone], for which the “HIA(Human Intestinal Absorption)” value is given as 1. In the case of `CCC#CC[C@H](C)[C@H](O)C#C[C@@H]1[C@H]2C/C(=C/COCC(=O)O)C[C@H]2C[C@H]1O` [Cicaprost], the “HIA(Human Intestinal Absorption)” value is on record as 1. `COc1nc(C)nc(Cl)c1N=C1NCCN1` [Moxonidine]: the “HIA(Human Intestinal Absorption)” value was 0.88.

Regarding `O=C1Cc2cc(CCN3CCN(c4nsc5ccccc45)CC3)c(Cl)cc2N1` [Ziprasidone], the “HIA(Human Intestinal Absorption)” value is 0.6.

For the compound `O=C(O)c1cc(-c2ccc(F)cc2F)ccc1O` [Diflunisal], the “HIA(Human Intestinal Absorption)” value is 0.9. Regarding `C=CC(N)CCC(=O)O` (stereo not shown) [Vigabatrin], the “HIA(Human Intestinal Absorption)” value is 0.58. For `C#C[C@]1(O)CC[C@H]2[C@@H]3[C@H](C)CC4=C(CCC(=O)C4)[C@H]3CC[C@@]21C` [Tibolone], the “HIA(Human Intestinal Absorption)” value is reported as 0.9. For the compound `CC1(C)NC(=O)N(c2ccc([N+](=O)[O-])c(C(F)(F)F)c2)C1=O` [Nilutamide], the “HIA(Human Intestinal Absorption)” value is on record as 1.

For the compound `CC(=O)Nc1ccccc1` [Acetanilide], the “HIA(Human Intestinal Absorption)” value was 1. As for `CN1C2CCCC1CC(NC(=O)c1nn(C)c3ccccc13)C2` (stereo not shown) [Granisetron], the “HIA(Human Intestinal Absorption)” value is 1. In the case of `O=C1NS(=O)(=O)c2ccccc21` [Saccharin], the “HIA(Human Intestinal Absorption)” value was 0.88. With `Cc1onc(-c2c(F)cccc2Cl)c1C(=O)N[C@@H]1C(=O)N2[C@@H]1SC(C)(C)[C@@H]2C(=O)O` [Floxacillin], the “HIA(Human Intestinal Absorption)” value was 0.8. Consider `CCCN(CCC)S(=O)(=O)c1ccc(C(=O)O)cc1` [Probenecid], for which the “HIA(Human Intestinal Absorption)” value was 1. On to `CCC1(c2ccccc2)C(=O)NCNC1=O` [Primidone], for which the “HIA(Human Intestinal Absorption)” value is 0.75. On to `CO[C@H]1C[C@H](O[C@H]2CC[C@]3(C=O)[C@H]4CC[C@]5(C)[C@@H](C6=CC(=O)OC6)CC[C@]5(O)[C@@H]4CC[C@]3(O)C2)O[C@H](C)[C@H]1O` [Cymarin], for which the “HIA(Human Intestinal Absorption)” value is reported as 0.47. In the case of `CN1CCCC(n2nc(Cc3ccc(Cl)cc3)c3ccccc3c2=O)CC1` (stereo not shown) [Azelastine], the “HIA(Human Intestinal Absorption)” value is on record as 1.

In the case of `Cc1[nH]c(=O)c(C#N)cc1-c1ccncc1` [Milrinone], the “HIA(Human Intestinal Absorption)” value was 0.83. Take `C[C@]12C=CC(=O)C=C1CC[C@H]1[C@@H]3C[C@@H](O)[C@](O)(C(=O)CO)[C@@]3(C)C[C@H](O)[C@@]12F` [Triamcinolone]: the “HIA(Human Intestinal Absorption)” value is 1. With `NC(=O)c1cnccn1` [Pyrazinamide], the “HIA(Human Intestinal Absorption)” value is on record as 1. `C#C[C@]1(O)CC[C@H]2[C@@H]3CCc4cc(OC)ccc4[C@H]3CC[C@@]21C` [Mestranol]: the “HIA(Human Intestinal Absorption)” value is 0.9. With `Cc1nc(=O)c(C#N)c(NCc2cccnc2)[nH]1` [Pelrinone], the “HIA(Human Intestinal Absorption)” value was 0.98. Take `CC(=O)N[C@H]1[C@H]([C@H](O)[C@H](O)CO)OC(C(=O)O)=C[C@@H]1N=C(N)N` [Zanamivir]: the “HIA(Human Intestinal Absorption)” value is given as 0.02.

`C[C@@H]1CN(c2c(F)c(N)c3c(=O)c(C(=O)O)cn(C4CC4)c3c2F)C[C@H](C)N1` [Sparfloxacin]: the “HIA(Human Intestinal Absorption)” value is reported as 0.9.

In the case of `CN(C)[C@@H]1C(O)=C(C(N)=O)C(=O)[C@@]2(O)C(O)=C3C(=O)c4c(O)cccc4[C@@](C)(O)[C@H]3[C@H](O)[C@@H]12` [Oxytetracycline], the “HIA(Human Intestinal Absorption)” value is 0.58. `CC(NCCc1ccc(O)cc1)C(O)c1ccc(O)cc1` (stereo not shown) [Ritodrine]: the “HIA(Human Intestinal Absorption)” value is given as 0.95.

In the case of `COc1ccccc1N1CCN(CCCNc2cc(=O)n(C)c(=O)n2C)CC1` [Urapidil], the “HIA(Human Intestinal Absorption)” value is reported as 0.78. For `Nc1ccc(/N=N/c2ccccc2)c(N)n1` [Phenazopyridine], the “HIA(Human Intestinal Absorption)” value is on record as 0.9. As to `Clc1ccccc1CN1CCc2sccc2C1` [Ticlopidine], the “HIA(Human Intestinal Absorption)” value was 0.8. With `Cc1noc(NS(=O)(=O)c2ccc(N)cc2)c1C` [Sulfisoxazole], the “HIA(Human Intestinal Absorption)” value was 0.95. As for `CC(C)NCC(O)COc1ccc(CCOCC2CC2)cc1` (stereo not shown) [Betaxolol], the “HIA(Human Intestinal Absorption)” value is recorded as 0.9. In the case of `CCOC(=O)n1ccn(C)c1=S` [Carbimazole], the “HIA(Human Intestinal Absorption)” value is on record as 0.95.

As for `NS(=O)(=O)c1cc2c(cc1C(F)(F)F)NC(Cc1ccccc1)NS2(=O)=O` (stereo not shown) [Bendroflumethiazide], the “HIA(Human Intestinal Absorption)” value is given as 1. As for `COc1cc2nc(N3CCN(C(=O)c4ccco4)CC3)nc(N)c2cc1OC` [Prazosin], the “HIA(Human Intestinal Absorption)” value is given as 0.86. With `CCCC(CCC)C(=O)O` [Valproic_acid], the “HIA(Human Intestinal Absorption)” value is 0.98. Turning to `CC1=C(/C=C/C(C)=C/C=C/C(C)=C\C(=O)O)C(C)(C)CCC1` [Isotretinoin], the “HIA(Human Intestinal Absorption)” value was 0.9. For the compound `CC(C(=O)O)c1ccc(N2Cc3ccccc3C2=O)cc1` (stereo not shown) [Indoprofen], the “HIA(Human Intestinal Absorption)” value was 1. Take `Cc1ccc(S(=O)(=O)NC(=O)NN2CC3CCCC3C2)cc1` (stereo not shown) [Gliclazide]: the “HIA(Human Intestinal Absorption)” value was 0.65. `COc1ccc2c(c1)C(=O)N(CCc1ccc(S(=O)(=O)NC(=O)NC3CCCCC3)cc1)C(=O)C2(C)C` [Gliquidone]: the “HIA(Human Intestinal Absorption)” value is on record as 0.95. For the compound `NC[C@H]1CC[C@H](C(=O)O)CC1` [Tranexamic_acid], the “HIA(Human Intestinal Absorption)” value was 0.55.

As to `Cc1ccc(C(=O)c2ccc(CC(=O)O)n2C)cc1` [Tolmetin], the “HIA(Human Intestinal Absorption)” value is given as 0.99. As for `NS(=O)(=O)Cc1noc2ccccc12` [Zonisamide], the “HIA(Human Intestinal Absorption)” value is reported as 1. As for `O=C1CN(/N=C/c2ccc(-c3ccc([N+](=O)[O-])cc3)o2)C(O)=N1` [Dantrolene], the “HIA(Human Intestinal Absorption)” value is 0.8. In the case of `O=C(O)CCc1nc(-c2ccccc2)c(-c2ccccc2)o1` [Oxaprozin], the “HIA(Human Intestinal Absorption)” value is 0.98.

`CC1=C(/C=C/C(C)=C/C=C/C(C)=C/CO)C(C)(C)CCC1` [Vitamin_A]: the “HIA(Human Intestinal Absorption)” value was 0.8.

Regarding `CNCCC(Oc1ccc(C(F)(F)F)cc1)c1ccccc1` (stereo not shown) [Fluoxetine], the “HIA(Human Intestinal Absorption)” value was 0.8. Take `CN1CCC(=C2c3ccccc3CCc3cccnc32)CC1` [Azatadine]: the “HIA(Human Intestinal Absorption)” value is reported as 0.9. With `NCC[C@H](O)C(=O)N[C@@H]1C[C@H](N)[C@@H](O[C@H]2O[C@H](CN)[C@@H](O)[C@H](O)[C@H]2O)[C@H](O)[C@H]1O[C@H]1O[C@H](CO)[C@@H](O)[C@H](N)[C@H]1O` [Amikacin], the “HIA(Human Intestinal Absorption)” value is 0.01.

In the case of `CN1C(C(=O)Nc2ccccn2)=C(O)c2sccc2S1(=O)=O` [Tenoxicam], the “HIA(Human Intestinal Absorption)” value is recorded as 1. Take `CCC1=C(C)CN(C(=O)NCCc2ccc(S(=O)(=O)NC(=O)N[C@H]3CC[C@H](C)CC3)cc2)C1=O` [Glimepiride]: the “HIA(Human Intestinal Absorption)” value is 1.

For the compound `COc1cc([C@@H]2c3cc4c(cc3[C@@H](O[C@@H]3O[C@@H]5CO[C@@H](C)O[C@H]5[C@H](O)[C@H]3O)[C@H]3COC(=O)[C@H]23)OCO4)cc(OC)c1O` [Etoposide], the “HIA(Human Intestinal Absorption)” value was 0.5.
